The source of these data is ChEMBL document CHEMBL1201862, “PubChem BioAssay data set” (2004).

Where a name gives a salt, the structure may show the parent alone.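 Grown in 96-well plates, cells were treated for 48 hours with each compound at five concentrations. Insufficient inhibition: endpoint recorded as highest concentration tested. GI50: concentration for 50% inhibition of growth.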 Active and inactive are the calls of the source. Cut-off read from the data, not from the text of the source: active = GI50 up to about 1.1 µM and inactive = higher. Where only a bound is given, the exact number is not on record here.

Common to all, as to experiment: growth of human tumour cells (NCI), 48 h
Test [1] concerns DU-145.
The subject of test [2] is MDA-MB-231.
The subject of test [3] is DMS-273.
Test [4] has as its system LXFL 529.
Test [5] relates to M19-MEL.
Test [6] deals with XF498.
Test [7] has as its system HOP-18.
Test [8] relates to SNB-78.

Consider `CN1C(=O)[C@@H]2[C@@H]3c4ccccc4N(S(=O)(=O)C(F)(F)F)[C@@H]3c3[nH]c4ccccc4c3[C@@H]2C1=O`, for which the GI50 in test [1] is 98.2 µM (inactive); in test [2], 13.2 µM (inactive).
On the same counts, the results for `OCCN1c2ccccc2Sc2ccccc21` are > 10 µM (inactive) and > 10 µM (inactive).
As for `CCCCOC(=O)CC(CC(=O)OCCCC)(OC(C)=O)C(=O)OCCCC` [ACETYLTRIBUTYL CITRATE], the figures for the GI50 in test [1] and in test [2] were > 106 µM (inactive) and > 200 µM (inactive), respectively.
On the same counts, the results for `O=C(Cc1ccccc1)Nc1nc2ccc(Cl)cc2c2nc(-c3ccco3)nn12` are > 100 µM (inactive) and > 21.2 µM (inactive).
With `O=C1Cc2c([nH]c3cc(Br)ccc23)-c2ccccc2N1`, the GI50 is 21.4 µM (inactive) in test [1] and 22.8 µM (inactive) in test [2].
On the same counts, the results for `C=CCCC1(O)C(O)C(CO)O[C@H](O[C@@]2(CO)OC(CO)C(O)C2O)C1O` (stereo partly drawn) are > 100 µM (inactive) and > 100 µM (inactive).
On the same counts, the results for `CCC(=O)OCN(C)c1nc(N(C)COC(=O)CC)nc(N(C)COC(=O)CC)n1` are 37 µM (inactive) and 57.4 µM (inactive).
On the same counts, the results for `Oc1cn(-c2ccc(Cl)cc2)nc1-c1nnc(-c2ccccc2)o1` are 2.99 µM (inactive) and 6.01 µM (inactive).
As for `CCCCCC(/C=C/c1ncccc1OCCCCCC(=O)O)=N\NC1=NCCN1`, the GI50 in test [3] is 42.9 µM (inactive); in test [4], 47.2 µM (inactive); in test [5], > 100 µM (inactive); in test [6], 27.3 µM (inactive).
Consider `COc1ccc(C(=O)C(C(=O)C(=O)NC2C3CC4CC(C3)CC2C4)c2ccc(OC)cc2)cc1` (stereo not drawn), for which the GI50 in test [3], in test [7], in test [4], in test [5] and in test [8] was > 100 µM (inactive) in each case.
With `COC(=O)C1Cc2c([nH]c3ccccc23)C=N1` (stereo not drawn), the GI50 was > 100 µM (inactive) in test [3]; > 100 µM (inactive) in test [7]; > 100 µM (inactive) in test [4]; 74.8 µM (inactive) in test [5]; > 100 µM (inactive) in test [8].
Turning to `Nc1nc(Cl)cc(NCC2(CCO)CCC2)n1`, the GI50 in test [1] and in test [2] was > 100 µM (inactive) throughout.
`CC(=O)OCc1ccc(-c2nc(C#N)c(N)o2)o1`: the GI50 in test [1] and in test [2] was > 10 µM (inactive) in each case.
Consider `N#Cc1nnn(-c2ccc(Br)cc2)c1O`, for which the GI50 in test [1] and in test [2] was > 100 µM (inactive) throughout.
Consider `CC1(C)CC(=O)c2c(nc3c4c([nH]c(-c5ccc([N+](=O)[O-])cc5)c24)CC(C)(C)C3)C1`, for which the figures for the GI50 in test [1] and in test [2] were 81.8 µM (inactive) and 43.6 µM (inactive), respectively.
`CC(NNC(=O)c1cc[n+]([BH2-]C#N)cc1)c1ccc(Cl)cc1Cl` (stereo not drawn): the GI50 in test [1] was 68.5 µM (inactive); in test [2], 35 µM (inactive).
On the same counts, the results for `CCc1ccc(COC(=O)C2=C(C)NC(C)=C(C(=O)OCc3ccc(CC)cn3)C2C2=COCCO2)nc1` are 24.9 µM (inactive) and 14.2 µM (inactive).
Take `CN(C)c1cccc(/C=C(\C#N)c2ccccc2)c1`: the values for the GI50 in test [1] and in test [2] were 1.65 µM (inactive) and 1.11 µM (active), respectively.
As to `Clc1ccccc1C(n1ncc2ccccc21)n1ncc2ccccc21`, the GI50 was 45.2 µM (inactive) in test [3]; 37 µM (inactive) in test [4]; 23.1 µM (inactive) in test [5]; 71.1 µM (inactive) in test [8]; 14.5 µM (inactive) in test [6].
With `Clc1ccc(OCc2nnc3sc(-c4ccc(-c5ccc(Cl)cc5Cl)o4)nn23)c(Cl)c1`, the GI50 is 23.4 µM (inactive) in test [1] and 16.3 µM (inactive) in test [2].
Turning to `CN(C)/N=N/c1ccc(NC=O)cc1`, the GI50 in test [1] and in test [2] was > 100 µM (inactive) throughout.
Consider `COc1ccc(C(c2ccc(C(C)C)cc(=O)c2O)c2ccc3cccnc3c2O)cc1` (stereo not drawn), for which the GI50 is 0.31 µM (active) in test [3]; 0.506 µM (active) in test [4]; 0.484 µM (active) in test [5]; 1.05 µM (active) in test [8]; 2.17 µM (inactive) in test [6].
Take `NC1C(O)C(O)C(CO)OC1n1cc(F)c(=O)[nH]c1=O` (stereo not drawn): the GI50 in test [3], in test [7], in test [4] and in test [8] was > 100 µM (inactive) in each case.
Take `O=C(C1C(c2ccccc2)N1C(c1ccccc1)c1ccccc1)C1C(c2ccccc2)N1C(c1ccccc1)c1ccccc1` (stereo not drawn): the GI50 in test [2] was 19.8 µM (inactive).
With `CC(C)=CCc1c(O)c(CC2=C(O)C(CC=C(C)C)(C(=O)C(C)C)C(O)=C(C)C2=O)c(O)c(C(=O)C(C)C)c1O` (stereo not drawn), the figures for the GI50 in test [1] and in test [2] were 18.9 µM (inactive) and 17 µM (inactive), respectively.
On the same counts, the results for `O=C1C(N2CCNCC2)=C(Cl)C(=O)c2ncccc21` are 6.79 µM (inactive) and > 10 µM (inactive).
With `C[C@]12CC[C@H](O)CC1=CC[C@@H]1[C@@H]2CC[C@]2(C)C(=O)CC[C@@H]12` [PRASTERONE], the GI50 in test [1] was > 100 µM (inactive).
Still for that read-out and setting: the value for `O=c1c2ccccc2ncn1COCc1ccccc1` was > 100 µM (inactive).
With `OC[P+](CO)(CO)C12CC3CC(CC(C3)C1)C2`, the GI50 in test [1] and in test [2] was > 100 µM (inactive) throughout.
In the case of `C=C[C@@](C)(/C=C/c1ccc(O)cc1)CCC=C(C)C` [BAKUCHIOL], the GI50 is 13.2 µM (inactive) in test [1] and 18.6 µM (inactive) in test [2].
On the same counts, the results for `COc1cc(C2C3=C(N=C4SC(C(C)=O)=C(C)N42)c2ccccc2CC3)cc(OC)c1OC` (stereo not drawn) are > 100 µM (inactive) and 49.2 µM (inactive).
Consider `CCOC(=O)c1csc(NC(=O)C(C)N2CCCCC2)n1` (stereo not drawn), for which the GI50 in test [1] and in test [2] was > 100 µM (inactive) each time.
In the case of `O=S(=O)(O)c1ccc2c(/N=N/c3cccc4ccccc34)c(O)c(S(=O)(=O)O)cc2c1`, the GI50 in test [1] and in test [2] was > 100 µM (inactive) throughout.
Regarding `Oc1ccc(C(=C(Br)c2ccccc2)c2ccc(O)cc2)cc1`, the GI50 in test [1] was 13.1 µM (inactive); in test [2], 10.9 µM (inactive).
On the same counts, the results for `CC1(C)C=CC(=O)C(O)C(C)(C)C1=O` (stereo not drawn) are > 100 µM (inactive) and > 100 µM (inactive).
As for `C=CC1=C(C)c2cc3[nH]c(c4c5nc(cc6[nH]c(cc1n2)c(C)c6CC)C=C5C(=O)C4C(=O)OC)C(CCC(=O)OC/C=C(\C)CCCC(C)CCCC(C)CCCC(C)C)C3C.C=CC1=C(C)c2cc3[nH]c(c4c5nc(cc6[nH]c(cc1n2)c(C=O)c6CC)C=C5C(=O)C4C(=O)OC)C(CCC(=O)OC/C=C(\C)CCCC(C)CCCC(C)CCCC(C)C)C3C` (stereo not drawn), the GI50 in test [1] and in test [2] was > 100 µM (inactive) throughout.
For the molecule `CN(C)N1C(=O)S/C(=C\c2ccc([N+](=O)[O-])cc2)C1=O`, the GI50 in test [1] and in test [2] was > 100 µM (inactive) throughout.
As for `O=c1cc(N2CCCC2)[nH]c(=O)n1-c1ccccc1`, the GI50 in test [1] and in test [2] was > 100 µM (inactive) throughout.
With `COc1cc(C(=O)C2CC3(CCC2(O)c2cc(OC)c(OC)c(OC)c2)CC(=O)Nc2ccccc2C3=O)cc(OC)c1OC` (stereo not drawn), the GI50 in test [1] and in test [2] was > 100 µM (inactive) throughout.
For `O=C(NCCCl)O/N=C/c1cccnc1`, the GI50 in test [3], in test [7], in test [5] and in test [6] was > 100 µM (inactive) throughout.
On to `CC(=O)[C@H]1CC[C@@H]2[C@]1(C)CC=C1[C@]23C=C[C@]2(C[C@@H](O)CC[C@]12C)C(C(=O)O)C3C(=O)O` (stereo partly drawn), for which the GI50 in test [1] and in test [2] was > 100 µM (inactive) each time.
As for `Cc1ccc2c(O)cc(-c3sccc3C)nc2n1`, the GI50 in test [1] is 2.62 µM (inactive); in test [2] it was 2.48 µM (inactive).
Take `Cc1c(S(=O)(=O)c2ccccc2)c(N)n(CCN(C)C)c1C`: the GI50 in test [1] and in test [2] was > 100 µM (inactive) throughout.
As to `CCOC(=O)/C(SC#N)=C(/N)N1CCCC1`, the GI50 in test [1] and in test [2] was > 100 µM (inactive) in each case.
For `Cc1cc(N(CCC#N)CCC#N)ccc1/C=C(\NC(=O)/C=C/c1ccccc1)C(=O)Nc1ccccc1Cl`, the GI50 in test [3], in test [4], in test [5] and in test [8] was > 100 µM (inactive) throughout.
`COC(=O)C1=C(C)N2CCOC2CC1c1ccccc1` (stereo not drawn): the GI50 in test [4] and in test [5] was > 100 µM (inactive) in each case.
Turning to `CCOC(=O)CNC(=O)C(CSCc1ccc(Br)cc1)NC(=O)CCC(N)C(=O)OCC` (stereo not drawn), the GI50 in test [1] and in test [2] was > 50 µM (inactive) in each case.
On to `CCOC(=O)CSC(=O)NCCCl`, for which the GI50 in test [3], in test [4] and in test [8] was > 100 µM (inactive) each time.
Consider `CNC(=S)N/N=C(\C)c1nc2cccnc2[nH]1`, for which the GI50 was 55.2 µM (inactive) in test [1] and 42.7 µM (inactive) in test [2].
On the same counts, the results for `CN1c2ccccc2SC2C(c3ccccc3)=NOC21` (stereo not drawn) are 65.6 µM (inactive) and 27 µM (inactive).
On to `O=C1C(=C2CCCC2)CCC1CN1CCCCC1` (stereo not drawn), for which the GI50 is 15.3 µM (inactive) in test [7], 13.2 µM (inactive) in test [4], 32.4 µM (inactive) in test [5] and 19.6 µM (inactive) in test [8].
Consider `O=C1Nc2ccccc2C(=O)/C1=C/NC(=S)NCCc1ccccc1`, for which the GI50 in test [1] and in test [2] was > 100 µM (inactive) each time.
On to `CC(=O)Nc1ccc(C(=O)NN2C(=O)C(Cl)C2c2cccc([N+](=O)[O-])c2)cc1` (stereo not drawn), for which the GI50 in test [4] and in test [5] was > 100 µM (inactive) throughout.
Consider `Cc1cc(C)c(/C=C2\C(=O)Nc3ccccc32)[nH]1` [SEMAXANIB], for which the GI50 was > 83 µM (inactive) in test [1] and > 62.1 µM (inactive) in test [2].
As to `N#Cc1c(-c2ccc([N+](=O)[O-])cc2)c(C#N)c(=O)n(NS(=O)(=O)c2ccccc2)c1O`, in test [2], the GI50 is > 100 µM (inactive).
For `CN1C2CCC1/C(=C/c1cccc3c1OCO3)C(=O)/C2=C\c1cccc2c1OCO2`, the GI50 was 45 µM (inactive) in test [3], > 100 µM (inactive) in test [4], > 100 µM (inactive) in test [5] and 25.3 µM (inactive) in test [6].
